The values below come from PMC10070963 (Frontiers in Microbiology, 2023).

The target of one series is T1, SdaC (Escherichia coli, UniProt P0AAD6).
T1 construct: full-length native chromosomal sdaC, no tag; whole-cell uptake in strain lacking the other carriers, compared with its sdaC deletion B2429
The series can be described thus: radiolabelled uptake by whole cells, sdaC+ versus sdaC deletion. It is filed as cell-based. The settings on record: M9 medium, 0.2% glucose, 37 °C; 100 μM L-serine; strain B2394 versus B2429; labelled compound (14C).

Substrate in series [1]: C[C@@H](O)[C@H](N)C(=O)O
The series can be described thus: radiolabelled uptake by whole cells, initial velocity, Lineweaver-Burk. It is filed as cell-based, Escherichia coli. To be noted: M9 medium, 0.2% glucose, 37 °C, strain B2394[pMW-liv] overexpressing LIV-I, labelled compound (14C).

T1 sequence (P0AAD6 whole entry): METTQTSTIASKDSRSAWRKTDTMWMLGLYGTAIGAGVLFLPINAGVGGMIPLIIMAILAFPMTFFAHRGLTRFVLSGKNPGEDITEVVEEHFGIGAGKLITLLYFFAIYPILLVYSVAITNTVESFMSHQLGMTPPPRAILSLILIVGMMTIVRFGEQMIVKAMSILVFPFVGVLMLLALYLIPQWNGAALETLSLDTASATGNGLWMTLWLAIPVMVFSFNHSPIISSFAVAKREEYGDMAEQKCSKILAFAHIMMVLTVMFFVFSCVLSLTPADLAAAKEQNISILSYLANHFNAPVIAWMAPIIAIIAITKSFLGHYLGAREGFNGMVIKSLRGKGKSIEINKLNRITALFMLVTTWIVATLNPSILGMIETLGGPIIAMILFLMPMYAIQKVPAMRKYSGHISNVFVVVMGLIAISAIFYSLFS

As for `N[C@@H](CO)C(=O)O` [L-serine], the “radiolabelled uptake by whole cells, sdaC+ versus sdaC deletion” value at SdaC was “serine transport activity of the B2394 strain possessing SdaC as the sole transporter”.

B1: LIV-I branched chain amino acid transport system (Escherichia coli K-12) (protein)
chain: EDIKVAVVGAMSGPVAQYGDQEFTGAEQAVADINAKGGIKGNKLQIVKYDDACDPKQAVAVANKVVNDGIKYVIGHLCSSSTQPASDIYEDEGILMITPAATAPELTARGYQLILRTTGLDSDQGPTAAKYILEKVKPQRIAIVHDKQQYGEGLARAVQDGLKKGNANVVFFDGITAGEKDFSTLVARLKKENIDFVYYGGYHPEMGQILRQARAAGLKTQFMGPEGVANVSLSNIAGESAEGLLVTKPKNYDQVPANKPIVDAIKAKKQDPSGAFVWTTYAALQSLQAGLNQSDDPAEIAKYLKANSVDTVMGPLTWDEKGDLKGFEFGVFDWHANGTATDAK
notes: whole-cell uptake, ABC transporter
Turning to B1, the Km (usually the concentration of substrate that gives half-maximal velocity) in series [1] amounted to 13.0 ± 0.9 µM.
